Data reported in ChEMBL document CHEMBL1137049 (Bioorg Med Chem Lett, 2004).

Columns and labels:
Histamine H3 receptor [1] = molecular target: T1, Histamine H3 receptor (Homo sapiens, UniProt Q9Y5N1); experiment: Intrinsic activity against human histamine H3 receptor
Histamine H4 receptor = Histamine H4 receptor (Homo sapiens, UniProt Q9H3N8); experiment: Binding affinity towards human histamine H4 receptor was determined by [3H]Na-methylhistamine binding to SK-N-MC cell membranes
Histamine H3 receptor [2] = molecular target: T1, Histamine H3 receptor; experiment: Effective concentration required against human histamine H3 receptor was determined by the inhibition of the cAMP stimulated beta-galactosidase transcription in SK-N-MC cells; type: cell-based
Histamine H3 receptor [3] = molecular target: T1, Histamine H3 receptor; experiment: Binding affinity towards human histamine H3 receptor was determined by [3H]Na-methylhistamine binding to SK-N-MC cell membranes

T1 sequence (Q9Y5N1 whole entry): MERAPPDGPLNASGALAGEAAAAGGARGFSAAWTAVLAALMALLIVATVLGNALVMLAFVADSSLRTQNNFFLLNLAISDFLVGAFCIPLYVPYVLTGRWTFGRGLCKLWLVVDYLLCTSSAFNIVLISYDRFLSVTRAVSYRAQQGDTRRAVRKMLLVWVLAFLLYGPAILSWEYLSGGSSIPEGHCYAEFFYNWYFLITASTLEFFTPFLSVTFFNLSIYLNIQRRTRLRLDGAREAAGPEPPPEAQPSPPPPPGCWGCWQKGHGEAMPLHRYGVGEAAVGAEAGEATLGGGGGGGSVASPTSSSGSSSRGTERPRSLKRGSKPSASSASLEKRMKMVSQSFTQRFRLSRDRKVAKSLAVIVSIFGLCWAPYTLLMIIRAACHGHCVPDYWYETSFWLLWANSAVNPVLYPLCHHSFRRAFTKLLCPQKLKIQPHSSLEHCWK
Histamine H4 receptor, sequence (Q9H3N8 whole entry): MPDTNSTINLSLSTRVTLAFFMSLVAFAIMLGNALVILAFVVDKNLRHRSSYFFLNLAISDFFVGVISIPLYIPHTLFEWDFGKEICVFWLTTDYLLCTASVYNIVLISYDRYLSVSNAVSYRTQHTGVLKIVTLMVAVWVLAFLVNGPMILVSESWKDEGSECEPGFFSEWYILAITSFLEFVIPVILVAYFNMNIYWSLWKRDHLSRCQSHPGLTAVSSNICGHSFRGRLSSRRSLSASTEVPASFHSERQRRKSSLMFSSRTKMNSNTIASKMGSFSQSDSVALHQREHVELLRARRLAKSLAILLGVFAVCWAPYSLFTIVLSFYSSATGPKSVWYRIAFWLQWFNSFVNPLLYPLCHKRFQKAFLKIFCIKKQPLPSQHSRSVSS

| SMILES | Intrinsic activity (Histamine H3 receptor [1]) | Ki (Histamine H4 receptor) [µM] | EC50 (Histamine H3 receptor [2]) [µM] | Ki (Histamine H3 receptor [3]) [µM] |
| --- | --- | --- | --- | --- |
| CN1CCN(C(=O)c2nc3ccc(Cl)cc3[nH]2)CC1 | -1 | – | – | – |
| CN(C)CCN(C)C(=O)c1nc2cc(Cl)ccc2[nH]1 | – | 25.1 | – | – |
| CC(=O)Nc1nc2cc(Cl)ccc2[nH]1 | – | > 100 | – | – |
| CN1CCN(C(=O)c2cc3cc(Cl)ccc3[nH]2)CC1 [JNJ-7777120] | -0.7 | – | 1 | 2 |
| CN1CCN(C(=O)c2cc3cc(I)ccc3[nH]2)CC1 | -0.8 | 0.0631 | 3.16 | 2.51 |
| CN1CCN(C(=O)c2nc3cc(Cl)ccc3[nH]2)CC1 | – | 0.0794 | 3.16 | 3.98 |
| CN(C)CCNC(=O)c1nc2cc(Cl)ccc2[nH]1 | -0.5 | 1 | 3.16 | 25.1 |
| CN1CCN(C(=O)c2cc3cc(Br)ccc3[nH]2)CC1 | -0.7 | 0.0316 | 1.58 | 3.16 |
| CN1CCN(NC(=O)c2nc3cc(Cl)ccc3[nH]2)CC1 | – | > 100 | – | – |
| CN1CCN(NC(=O)c2cc3cc(Cl)ccc3[nH]2)CC1 | – | 25.1 | – | – |
| O=C(c1cc2cc(Cl)ccc2[nH]1)N1CCCCC1 | -0.6 | 7.94 | 3.16 | 6.31 |
| CN1CCC(C(=O)c2cc3cc(Cl)ccc3[nH]2)CC1 | -0.5 | 0.2 | 1 | 3.16 |
| CN1CCN(C(=O)Nc2nc3cc(Cl)ccc3[nH]2)CC1 | – | 20 | – | – |
| CN(C)CCNC(=O)c1cc2cc(Cl)ccc2[nH]1 | 0 | 3.16 | – | 5.01 |
| O=C(c1cc2cc(Cl)ccc2[nH]1)N1CCOCC1 | – | > 100 | – | – |
| CN(C)CCCNC(=O)c1cc2cc(Cl)ccc2[nH]1 | – | > 100 | – | – |
| CN(C)CCN(C)C(=O)c1cc2cc(Cl)ccc2[nH]1 | – | 25.1 | – | – |
| CN(C)c1cccc(-c2nc3cc(Cl)ccc3[nH]2)c1 | – | > 100 | – | – |
| CN1CCC(C(O)c2cc3cc(Cl)ccc3[nH]2)CC1 (stereo not drawn) | -0.5 | 5.01 | 1 | 1.58 |
